Test results from patent US7265103B2, “Substituted amino isoxazoline derivatives and their use as anti-depressants” (Janssen Pharmaceutica NV., priority 2002, dated 2007).

Experiments:
h5-HT transporter = biological target: T1, h5-HT transporter (Homo sapiens, UniProt P31645); assay: Radioligand binding experiment for 5-HT transporter ([3H]paroxetine); conditions: human platelet membranes, [3H]paroxetine 0.5 nM
T1 construct: Human platelet membranes (Oceanix Biosciences Corporation, Hanover, Md., USA) were thawed; tissue Oceanix Biosciences Corporation; host or cells: human platelet membranes
T1 sequence (P31645 whole entry): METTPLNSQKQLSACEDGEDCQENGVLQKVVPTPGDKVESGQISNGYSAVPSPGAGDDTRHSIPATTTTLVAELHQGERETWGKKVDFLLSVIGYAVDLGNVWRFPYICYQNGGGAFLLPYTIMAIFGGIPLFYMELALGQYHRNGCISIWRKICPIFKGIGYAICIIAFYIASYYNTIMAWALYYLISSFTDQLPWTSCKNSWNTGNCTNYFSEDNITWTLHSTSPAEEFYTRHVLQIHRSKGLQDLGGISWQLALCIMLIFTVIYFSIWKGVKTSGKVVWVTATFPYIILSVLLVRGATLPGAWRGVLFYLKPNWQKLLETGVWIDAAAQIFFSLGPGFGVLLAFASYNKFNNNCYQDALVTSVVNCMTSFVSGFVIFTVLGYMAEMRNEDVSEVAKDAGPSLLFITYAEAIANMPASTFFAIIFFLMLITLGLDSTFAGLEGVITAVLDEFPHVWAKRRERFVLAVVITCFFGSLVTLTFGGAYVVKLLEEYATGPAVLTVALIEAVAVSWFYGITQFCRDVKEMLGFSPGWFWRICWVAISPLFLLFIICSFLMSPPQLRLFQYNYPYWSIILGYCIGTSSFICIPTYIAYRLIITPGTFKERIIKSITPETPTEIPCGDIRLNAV
Outline: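 Competition binding on human platelet membranes (50-100 μg protein) in 50 mM Tris-HCl, 120 mM NaCl, 5 mM KCl with 0.5 nM [3H]paroxetine, 60 min at 25 °C, filtration and scintillation counting. Non-specific binding defined with 1 μM imipramine; pIC50 from nonlinear sigmoidal fits of percent total binding.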

hα2A receptor = biological target: T2, hα2A receptor (Homo sapiens, UniProt P08913); assay: Radioligand binding experiment for α2A-adrenergic receptor ([3H]-raulwolscine); conditions: CHO cell membranes with human α2A receptor, [3H]raulwolscine 1 nM; read-out: pIC50 α2A (converted)
T2 construct: expressed in transfected cells; host or cells: CHO cells
T2 sequence (P08913 1-465): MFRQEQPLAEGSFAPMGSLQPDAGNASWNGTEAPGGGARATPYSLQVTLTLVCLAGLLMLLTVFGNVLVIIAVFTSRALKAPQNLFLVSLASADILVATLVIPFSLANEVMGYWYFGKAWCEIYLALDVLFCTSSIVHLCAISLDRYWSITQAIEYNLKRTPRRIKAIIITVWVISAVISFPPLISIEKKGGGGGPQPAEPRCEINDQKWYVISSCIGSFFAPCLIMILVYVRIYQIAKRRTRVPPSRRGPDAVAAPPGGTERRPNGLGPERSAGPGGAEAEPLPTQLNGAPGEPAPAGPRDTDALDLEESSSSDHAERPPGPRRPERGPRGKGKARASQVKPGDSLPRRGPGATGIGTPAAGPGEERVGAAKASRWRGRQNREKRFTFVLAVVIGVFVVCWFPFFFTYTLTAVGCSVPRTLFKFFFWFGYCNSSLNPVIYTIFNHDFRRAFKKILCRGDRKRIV
Outline: (§1)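 Membranes from CHO cells stably expressing human α2A or α2C receptors (sodium butyrate-induced) incubated with 1 nM [3H]raulwolscine in 25 mM glycylglycine pH 8.0 for 60 min at 25° C, then filtered. Non-specific binding defined with 1 μM oxymetazoline (α2A) or 1 μM spiroxatrine (α2C); pIC50 from sigmoidal competition curves.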

hα2C receptor = biological target: T3, hα2C receptor (Homo sapiens, UniProt P18825); assay: Radioligand binding experiment for α2C-adrenergic receptor ([3H]-raulwolscine); conditions: CHO cell membranes with human α2C receptor, [3H]raulwolscine 1 nM; read-out: pIC50 α2C (converted)
T3 construct: expressed in transfected cells; host or cells: CHO cells
T3 sequence (P18825 1-462): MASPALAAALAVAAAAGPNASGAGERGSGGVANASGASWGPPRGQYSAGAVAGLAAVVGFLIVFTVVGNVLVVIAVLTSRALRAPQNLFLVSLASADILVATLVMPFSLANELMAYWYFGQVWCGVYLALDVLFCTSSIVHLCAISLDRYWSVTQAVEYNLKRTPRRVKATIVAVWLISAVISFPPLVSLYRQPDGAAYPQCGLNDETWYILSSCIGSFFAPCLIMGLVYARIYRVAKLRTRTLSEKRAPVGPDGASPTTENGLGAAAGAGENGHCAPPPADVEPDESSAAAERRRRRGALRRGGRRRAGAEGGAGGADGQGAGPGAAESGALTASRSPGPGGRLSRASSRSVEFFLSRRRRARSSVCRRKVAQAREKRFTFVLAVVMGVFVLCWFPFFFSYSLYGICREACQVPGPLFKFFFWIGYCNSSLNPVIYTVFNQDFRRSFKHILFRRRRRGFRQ
Outline: as §1

Structure (SMILES)	IC50 (h5-HT transporter)	melting point	IC50 (hα2A receptor)	IC50 (hα2C receptor)
COc1cc2c(cc1NCCN(C)C)OCC1C2=NOC1CN1CCN(CC(C)=Cc2ccc(F)cc2)CC1 (stereo not drawn) [Compound 24]	5.01 nM	157.7 to 159.9 °C	25.1 nM	1.58 nM
COc1cc2c(cc1NCCN1CCCC1)OCC1C2=NOC1CN1CCN(CC(C)=Cc2ccccc2)CC1 (stereo not drawn) [Compound 26]	3.16 nM	120.4 to 123 °C	5.01 nM	< 1 nM
CC(=Cc1ccc(F)cc1)CN1CCN(CC2ON=C3c4ccc(NCCN5CCCC5)cc4OCC32)CC1 (stereo not drawn) [Compound 28]	3.16 nM	108.3 to 121.8 °C	63.1 nM	3.98 nM
CC(=Cc1ccccc1)CN1CCN(CC2ON=C3c4ccc(Nc5ccccc5)cc4OCC32)CC1 (stereo not drawn) [Compound 40]	50.1 nM	127.1 to 131.4 °C	15.8 nM	10 nM
CC(=Cc1ccccc1)CN1CCN(CC2ON=C3c4ccc(N(C)c5ccccc5)cc4OCC32)CC1 (stereo not drawn) [Compound 41]	158 nM	125.9 to 139.7 °C	25.1 nM	25.1 nM
CC(=Cc1ccccc1)CN1CCN(CC2ON=C3c4ccc(Nc5ccc(F)cc5)cc4OCC32)CC1 (stereo not drawn) [Compound 42]	126 nM	130.8 to 134.1 °C	31.6 nM	15.8 nM
COc1ccc(Nc2ccc3c(c2)OCC2C3=NOC2CN2CCN(CC(C)=Cc3ccc(F)cc3)CC2)cc1 (stereo not drawn) [Compound 43]	631 nM	131.7 to 134.5 °C	398 nM	126 nM
CC(=Cc1ccccc1)CN1CCN(CC2ON=C3c4ccc(Nc5cccc(C#N)c5)cc4OCC32)CC1 (stereo not drawn) [Compound 44]	15.8 nM	152.7 to 162.6 °C	15.8 nM	20 nM
CC(=Cc1ccccc1)CN1CCN(CC2ON=C3c4ccc(Nc5ccccc5C)cc4OCC32)CC1 (stereo not drawn) [Compound 45]	79.4 nM	133.3 to 148.9 °C	20 nM	20 nM
CC(=Cc1ccccc1)CN1CCN(CC2ON=C3c4ccc(Nc5ccc(C)c(C)c5)cc4OCC32)CC1 (stereo not drawn) [Compound 46]	316 nM	138.9 to 151.3 °C	63.1 nM	39.8 nM
CC(=Cc1ccccc1)CN1CCN(CC2ON=C3c4ccc(NC(=O)C(C)(C)C)cc4OCC32)CC1 (stereo not drawn) [Compound 50]	15.8 nM	183.4 to 190.2 °C	3.16 nM	1 nM
C=CC(=O)Nc1ccc2c(c1)OCC1C2=NOC1CN1CCN(CC(C)=Cc2ccccc2)CC1 (stereo not drawn) [Compound 54]	25.1 nM	136.1 to 172.9 °C	1.58 nM	0.794 nM
CC(=Cc1ccccc1)CN1CCN(CC2ON=C3c4ccc(NC(=O)NC(C)(C)C)cc4OCC32)CC1 (stereo not drawn) [Compound 61]	20 nM	98.4 to 113.5 °C	7.94 nM	2 nM
CC(=Cc1ccccc1)CN1CCN(CC2ON=C3c4ccc(NC(=O)NC5CCCCC5)cc4OCC32)CC1 (stereo not drawn) [Compound 62]	39.8 nM	121.1 to 136.5 °C	25.1 nM	6.31 nM
CCOC(=O)CNC(=O)Nc1ccc2c(c1)OCC1C2=NOC1CN1CCN(CC(C)=Cc2ccccc2)CC1 (stereo not drawn) [Compound 63]	31.6 nM	175.3 to 177 °C	7.94 nM	1.58 nM
CC(=Cc1ccccc1)CN1CCN(CC2ON=C3c4ccc(NC(=O)Nc5ccccc5)cc4OCC32)CC1 (stereo not drawn) [Compound 64]	251 nM	180.3 to 181.6 °C	25.1 nM	15.8 nM
CC(=Cc1ccccc1)CN1CCN(CC2ON=C3c4ccc(NC(=O)Nc5cccc(F)c5)cc4OCC32)CC1 (stereo not drawn) [Compound 65]	1580 nM	186.8 to 188.5 °C	79.4 nM	31.6 nM
CC(=Cc1ccccc1)CN1CCN(CC2ON=C3c4ccc(N(S(C)(=O)=O)S(C)(=O)=O)cc4OCC32)CC1 (stereo not drawn) [Compound 66]	39.8 nM	201.8 to 202.9 °C	5.01 nM	0.501 nM
CC(=Cc1ccc(F)cc1)CN1CCN(CC2ON=C3c4ccc(N5CCCC5)cc4OCC32)CC1 (stereo not drawn) [Compound 70]	100 nM	194.7 to 204.9 °C	12.6 nM	7.94 nM
CC(=Cc1ccc(F)cc1)CN1CCN(CC2ON=C3c4ccc(N5CCCCC5)cc4OCC32)CC1 (stereo not drawn) [Compound 71]	100 nM	168.2 to 169.4 °C	63.1 nM	6.31 nM
CCOC(=O)C1CCN(c2ccc3c(c2)OCC2C3=NOC2CN2CCN(CC(C)=Cc3ccc(F)cc3)CC2)CC1 (stereo not drawn) [Compound 72]	631 nM	156.4 to 161 °C	100 nM	20 nM
COc1cc2c(cc1N1CCN(C)CC1)OCC1C2=NOC1CN1CCN(CC(C)=Cc2ccccc2)CC1 (stereo not drawn) [Compound 75]	7.94 nM	142.8 to 144.4 °C	1.58 nM	< 1 nM
CC(=Cc1ccc(F)cc1)CN1CCN(CC2ON=C3c4ccc(N5CCN(C)CC5)cc4OCC32)CC1 (stereo not drawn) [Compound 77]	3.16 nM	147.3 to 150.6 °C	39.8 nM	2.51 nM
CC(=Cc1ccc(F)cc1)CN1CCN(CC2ON=C3c4ccc(N5CCN(c6ccccc6)CC5)cc4OCC32)CC1 (stereo not drawn) [Compound 79]	200 nM	203.5 to 206.2 °C	251 nM	7.94 nM
CC(=Cc1ccc(F)cc1)CN1CCN(CC2ON=C3c4ccc(N5CCN(Cc6ccccc6)CC5)cc4OCC32)CC1 (stereo not drawn) [Compound 80]	126 nM	166.4 to 178.2 °C	126 nM	3.98 nM
CC(=Cc1ccc(F)cc1)CN1CCN(CC2ON=C3c4ccc(N5CCN(CC=Cc6ccccc6)CC5)cc4OCC32)CC1 (stereo not drawn) [Compound 81]	63.1 nM	154.9 to 160.4 °C	126 nM	20 nM
COc1cc2c(cc1N1CCOCC1)OCC1C2=NOC1CN1CCN(CC(C)=Cc2ccccc2)CC1 (stereo not drawn) [Compound 82]	39.8 nM	143.5 to 145.9 °C	1.58 nM	1.26 nM
